The record followed here is publication PMC7070036, “An amber obligate active site-directed ligand evolution technique for phage display” (Nature Communications, 2020).

The test system of experiment [1] is amber-obligate phagemid library. As to the kind of experiment: Phage yield on expression of the amber-obligate phagemid library with ncAAs (cfu assay). Also noted: species or system E. coli Top10. Conditions: BuKRS.
The next experiment concerns the target T1, SIRT3 (Homo sapiens, UniProt Q9NTG7).
T1 sequence (Q9NTG7 1-399): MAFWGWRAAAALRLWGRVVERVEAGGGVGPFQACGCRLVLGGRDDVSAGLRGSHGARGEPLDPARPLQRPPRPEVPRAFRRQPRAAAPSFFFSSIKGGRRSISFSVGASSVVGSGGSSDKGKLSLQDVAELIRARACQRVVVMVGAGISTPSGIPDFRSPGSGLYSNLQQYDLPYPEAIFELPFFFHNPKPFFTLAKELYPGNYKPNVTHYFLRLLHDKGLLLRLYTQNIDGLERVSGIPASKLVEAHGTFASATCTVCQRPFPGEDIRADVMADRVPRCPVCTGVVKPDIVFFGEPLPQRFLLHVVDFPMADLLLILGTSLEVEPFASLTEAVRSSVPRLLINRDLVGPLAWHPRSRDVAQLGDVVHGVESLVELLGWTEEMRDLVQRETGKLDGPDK
As to the kind of experiment: Continuous fluorogenic sirtuin inhibition assay, SIRT3. The experiment is classed as biochemical. The protocol:
(§1) The continuous assay for comparing isoform specificity of S2P04 was performed using the universal fluorogenic sirtuin substrate described by Schuster et al.[41]. Briefly, the inhibition reactions were performed in 50-µL volumes at 37 °C in black, half-area, 96-well plates. The sirtuin enzyme (0.25 µM) was preincubated with different concentrations of the peptide S2P04 (0.0064–50 µM for SIRT1 and SIRT2, 0.5–100 µM for SIRT3) or TB (0.16–150 µM for SIRT1–SIRT3), and 1 mM NAD^+ in assay buffer (20 mM Tris, pH 7.8, 150 mM NaCl, 5 mM MgCl2, and 1 mM DTT) for 15 min. Following incubation, the reaction started with the addition of the fluorogenic substrate (5 µM), and product formation was monitored by measuring the fluorescence intensity every 20 s for 5 min (SIRT2) or 30 min (SIRT1 and SIRT3) in a BioTek Synergy H1 microplate reader at λex = 320 nm and λem = 408 nm (gain = 130 and read height = 7 mm). Initial rates of product formation were determined by a linear regression of the plot of fluorescence intensity vs. time and normalized relative to 0% (max inhibitor) and 100% (no inhibitor) controls. The assay was repeated to determine the IC50 values of all BuK peptides for SIRT2. IC50 values were determined by nonlinear regression of the plot of the normalized initial rate vs. inhibitor concentration using GraphPad Prism. The determined IC50 values are provided in Supplementary Table 2, and inhibition curves can be seen in Supplementary Fig. 20.

A further experiment has as its target T2, SIRT1 (Homo sapiens, UniProt Q96EB6).
T2 sequence (Q96EB6 1-747): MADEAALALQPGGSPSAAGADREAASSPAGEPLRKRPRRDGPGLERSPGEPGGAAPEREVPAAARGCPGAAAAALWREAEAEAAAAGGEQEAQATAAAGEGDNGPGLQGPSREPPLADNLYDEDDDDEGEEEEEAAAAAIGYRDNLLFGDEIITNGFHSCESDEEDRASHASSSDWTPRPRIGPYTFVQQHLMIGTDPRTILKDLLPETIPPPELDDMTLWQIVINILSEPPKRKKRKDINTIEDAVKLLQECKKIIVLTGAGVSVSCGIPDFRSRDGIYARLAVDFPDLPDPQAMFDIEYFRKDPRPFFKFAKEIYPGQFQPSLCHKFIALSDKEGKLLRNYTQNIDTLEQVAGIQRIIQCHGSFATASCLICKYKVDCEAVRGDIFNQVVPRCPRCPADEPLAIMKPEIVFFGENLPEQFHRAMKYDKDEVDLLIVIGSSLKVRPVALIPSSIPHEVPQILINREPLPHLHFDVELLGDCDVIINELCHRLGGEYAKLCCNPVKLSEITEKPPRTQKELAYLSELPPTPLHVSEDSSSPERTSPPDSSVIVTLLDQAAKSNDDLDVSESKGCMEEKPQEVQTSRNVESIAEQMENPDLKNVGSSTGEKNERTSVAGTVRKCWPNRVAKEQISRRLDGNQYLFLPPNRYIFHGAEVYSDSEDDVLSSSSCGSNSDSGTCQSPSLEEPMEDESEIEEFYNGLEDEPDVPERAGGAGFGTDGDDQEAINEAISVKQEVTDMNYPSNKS
As to the kind of experiment: Continuous fluorogenic sirtuin inhibition assay, SIRT1. The experiment is classed as biochemical. On the procedure: as §1

Another experiment addresses T3, SIRT2 (Homo sapiens, UniProt Q8IXJ6).
T3 sequence (Q8IXJ6 1-389): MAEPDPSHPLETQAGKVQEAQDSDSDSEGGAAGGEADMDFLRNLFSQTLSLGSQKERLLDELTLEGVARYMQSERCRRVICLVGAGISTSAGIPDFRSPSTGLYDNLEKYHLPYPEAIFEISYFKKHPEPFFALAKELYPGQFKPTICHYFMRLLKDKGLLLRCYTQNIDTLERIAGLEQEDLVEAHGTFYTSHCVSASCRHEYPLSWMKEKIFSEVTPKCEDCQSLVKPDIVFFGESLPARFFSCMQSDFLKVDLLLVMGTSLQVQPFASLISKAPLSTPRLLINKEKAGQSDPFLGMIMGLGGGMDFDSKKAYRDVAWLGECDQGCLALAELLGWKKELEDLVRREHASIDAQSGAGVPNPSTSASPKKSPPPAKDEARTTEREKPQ
As to the kind of experiment: Continuous fluorogenic sirtuin inhibition assay, SIRT2 (tBuK peptides, TB). The experiment is classed as biochemical. On the procedure:
as §1

Another experiment concerns the target FITC-conjugated S2P03. As to the kind of experiment: fluorescence polarisation; SIRT2 serially diluted from 5 uM to 1 nM (24 uL) plus 1 uL of 250 nM FITC-peptide; 50 mM Tris, 137 mM NaCl, 2.7 mM KCl, 1 mM MgCl2, 1 mM DTT, 0.01% Triton X-100, pH 8.0; 37 C for 15-30 min; 384-well plate. On the technique in general: In fluorescence polarisation assays a small probe gives low polarisation when free and higher when bound to something large.

[2] abbreviates: mean ± SD of two independent experiments.

Starred links: 1 amine or outer side, 2 acyl side, 3 side chain; linkers in the order of their positions; H or OH if unused. Non-standard residues stand in square brackets, D forms with d. Residues, ends and D or L forms follow the SMILES beside them. X1 = CCCC(=S)NCCCC[C@H](N[*:1])C(=O)[*:2]

On to `CCCC(=O)NCCCC[C@H](N)C(=O)O` [compound 5, N ^Ɛ-butyryl-L-lysine], for which the “fold increase in particle yield vs no ncAA” value in experiment [1] was around 100 fold.

For the molecule `C/C=C/C(=O)NCCCC[C@H](N)C(=O)O` [compound 6, N^Ɛ-crotonyl-L-lysine], the “fold increase in particle yield vs no ncAA” value in experiment [1] was around 100 fold. Moreover, the “Phage Yields, ncAA” value in experiment [1] (Fig. 4e, single trials) turned out to be 3.00E+09 CFU/mL.

Usually IC50 stands for the concentration that gives 50% inhibition. As to `CCCC(=S)NCCCC[C@H](NC(=O)[C@@H](NC(=O)[C@@H](NC(=O)[C@H](CS)NC(=O)[C@@H](N)[C@@H](C)O)[C@@H](C)O)C(C)C)C(=O)N[C@H](C(=O)NCC(N)=O)[C@@H](C)CC` [S2P04-tBuK] (H-TCTV[X1]IG-NH2), the remaining activity at 0.5 µM came out at 98.2% on SIRT3 (inhibitor 0.5 µM, read-out: Normalized Activity, SIRT3); 26.2% on SIRT1 (inhibitor 0.5 µM, read-out: Normalized Activity, SIRT1); 5.68% at SIRT2 (inhibitor 0.5 µM, read-out: Normalized Activity, SIRT2). Besides, the remaining activity at 1 µM stood at 96.2% at SIRT3 (inhibitor 1 µM, read-out: Normalized Activity, SIRT3) and 3.34% at SIRT2 (inhibitor 1 µM, read-out: Normalized Activity, SIRT2). The remaining activity at 2 µM on SIRT3 (inhibitor 2 µM, read-out: Normalized Activity, SIRT3) amounted to 103%; at SIRT1 (inhibitor 2 µM, read-out: Normalized Activity, SIRT1), 2.97%; on SIRT2 (inhibitor 2 µM, read-out: Normalized Activity, SIRT2), 3.21%. Further, the remaining activity at 4 µM is 82.4% on SIRT3 (inhibitor 4 µM, read-out: Normalized Activity, SIRT3) and 2.33% on SIRT2 (inhibitor 4 µM, read-out: Normalized Activity, SIRT2). Further, the remaining activity at 10 µM at SIRT3 (inhibitor 10 µM, read-out: Normalized Activity, SIRT3) came out at 59.8%. The remaining activity at 25 µM on SIRT3 (inhibitor 25 µM, read-out: Normalized Activity, SIRT3) turned out to be 29.6%. For the same molecule, the remaining activity at 50 µM on SIRT3 (inhibitor 50 µM, read-out: Normalized Activity, SIRT3) is 9.72%; at SIRT1 (inhibitor 50 µM, read-out: Normalized Activity, SIRT1), 0%; on SIRT2 (inhibitor 50 µM, read-out: Normalized Activity, SIRT2), 0%. Further, the remaining activity at 100 µM on SIRT3 (inhibitor 100 µM, read-out: Normalized Activity, SIRT3) turned out to be 0%. Besides, the IC50 amounted to 14000 ± 1000 nM at SIRT3 (setting [2]); 250 ± 50 nM on SIRT1 (setting [2]); 92 ± 3 nM at SIRT2 (mean ± SD of two independent experiments, read-out: IC50, SIRT2). The remaining activity at 0.0064 µM stood at 92.8% at SIRT1 (inhibitor 0.0064 µM, read-out: Normalized Activity, SIRT1) and 94.8% on SIRT2 (inhibitor 0.0064 µM, read-out: Normalized Activity, SIRT2). The remaining activity at 0.032 µM is 87.5% on SIRT1 (inhibitor 0.032 µM, read-out: Normalized Activity, SIRT1) and 85.2% at SIRT2 (inhibitor 0.032 µM, read-out: Normalized Activity, SIRT2). Further, on SIRT2 (inhibitor 0.0064 µM, single trials), the activity at 0.0064 µM came out at 85.9%. The “%Activity, SIRT2” value on SIRT2 (inhibitor 0.0064 µM, single trials, 0.0064 µM) came to 94.59%; on SIRT2 (inhibitor 0.032 µM, single trials, 0.032 µM), 83.831%; on SIRT2 (inhibitor 0.5 µM, single trials, 0.5 µM) it was 6.5384%; on SIRT2 (inhibitor 1 µM, single trials, 1 µM), 4.6849%; at SIRT2 (inhibitor 2 µM, single trials, 2 µM) it was 4.4288%; at SIRT2 (inhibitor 4 µM, single trials, 4 µM), 3.5157%. The “%Activity, SIRT2” value on SIRT2 (inhibitor 50 µM, single trials, 50 µM) stood at 1.0081%. In addition, the activity at 0.032 µM on SIRT2 (inhibitor 0.032 µM, single trials) turned out to be 77.2%. The activity at 0.5 µM on SIRT2 (inhibitor 0.5 µM, single trials) is 5.65%. Further, the activity at 1 µM at SIRT2 (inhibitor 1 µM, single trials) amounted to 3.54%. Moreover, at SIRT2 (inhibitor 2 µM, single trials), the activity at 2 µM was 3.42%. Moreover, the activity at 4 µM at SIRT2 (inhibitor 4 µM, single trials) is 2.63%. The activity at 50 µM at SIRT2 (inhibitor 50 µM, single trials) was 0.535%.

B1: recombinant human SIRT2 (enzyme)
chain: T3 sequence (Q8IXJ6 1-389)
What is called Kd is a measure of binding affinity in units of concentration. With B1, the Kd with FITC-conjugated S2P03 is 49 nM.
